For one series, the target named is T1, Pin1 (Homo sapiens, UniProt Q13526).
T1 construct: endogenous in cells; host or cells: 293T cells
The series is described as follows: Cell-based evaluation of Pin1 inhibition activity with AMPK phosphorylation level as index (293T cells, Western blot). Details: key: +++: a higher level of AMPK phosphorylation is promoted, as compared with C1; ++: a similar level of AMPK phosphorylation is promoted, as compared with C1; +: a lower level of AMPK phosphorylation is promoted, as compared with C1; −: no or almost no promotion is found in AMPK phosphorylation. As to conditions: compound at 100 μM, 30 minutes, then 10 mM 2-DG for one hour, pAMPK level compared with C1. Here is the method:
To evaluate the inhibitory activity of each compound synthesized in Example 1 against the function of Pin1, a cell-based assay was performed according to the method previously developed by the inventors (Yusuke Nakatsu et al., Journal of Biological Chemistry, 2015, Vol. 290, No. 40, pp. 24255-24266), in which the phosphorylation level of AMPK (AMP-activated protein kinase), a protein whose phosphorylation is inhibited by Pin1, was examined as an index.
Briefly, 293T cells were plated on a collagen-coated 24-well plate. Forty-eight hours later, each compound synthesized in the preceding example (at 100 μM) was added to the plate, and the plate was left to stand in an incubator for 30 minutes. Subsequently, 10 mM 2-DG was added to the plate, and one hour later, each sample was collected with a buffer containing mercaptoethanol and SDS.
SDS-PAGE and blotting were performed, and blocking was then performed with 3% BSA for 1 hour, according to conventional protocols. Subsequently, a pAMPK antibody (Cell Signaling; diluted 1:2000 in Can Get Signal Solution 1, Toyobo) as a primary antibody, and an HRP-linked anti rabbit IgG (GE Healthcare; diluted 1:4000 in Can Get Signal Solution 2, Toyobo) as a secondary antibody were allowed to react at ambient temperature for 1 hour prior to detection.
The inhibitory activity against the function of Pin1 was evaluated by comparing the inhibition levels between each compound and a known Pin1 inhibitor, C1, as indicated below:
(+++): a higher level of AMPK phosphorylation is promoted, as compared with C1;
(++): a similar level of AMPK phosphorylation is promoted, as compared with C1;
(+): a lower level of AMPK phosphorylation is promoted, as compared with C1;
(−): no or almost no promotion is found in AMPK phosphorylation.
(In general: Immunoblotting shows a protein as a band on a membrane.)

Series [1] concerns non-alcoholic steatohepatitis (NASH) model mice (HFDT). As to conditions: intraperitoneal 2.5 mg/kg/day three times a week. The procedure:
Animal experiments were performed using non-alcoholic steatohepatitis (NASH) model mice to test the compounds according to the present invention for the therapeutic effect on NASH.
NASH model mice (hereinafter referred to as “NASH mice”) were produced by feeding a high-fat diet containing trans fatty acids (HFDT) to individual male laboratory mice (C57BL/6J) for 8 weeks. The mice were divided into groups, and animal experiments were performed on a group of mice to which a compound according to the present invention (H-77) was administered intraperitoneally at a dose of 2.5 mg/kg/day three times a week, and a group of mice to which Juglone, a known Pin1 inhibitor, was administered intraperitoneally at a dose of 2.5 mg/kg/day three times a week, and a group of mice to which nothing was administered, during the 8-week HFDT feeding period. In addition, a normal diet was given to individual male laboratory mice (C57BL/6J) for 8 weeks to prepare control mice.

Series [2] relates to NASH mice (methionine-choline-deficient diet, MCDD). The series is described as follows: NASH treatment study in MCDD-fed NASH mice. The following applies: NASH mice given MCDD for 8 weeks; intraperitoneal 2.5 mg/kg/day three times a week; FIG. 3. Format: in vivo, mice (C57BL/6J). The procedure:
Next, an animal experiment was performed on NASH mice that were produced by feeding a methionine-choline-deficient diet (MCDD).

The next series concerns DU145 cells. The series is described as follows: Cancer treatment study in nude mice implanted with DU145 tumors. Type of series: in vivo, nude mice (BALB/c-slc-nu/nu mice). The following applies: intraperitoneal 2.5 mg/kg/day 5 times a week for 9 weeks, versus control mice. The procedure:
An animal experiment was performed using mice transplanted with cancer cells to test the therapeutic effects of the compounds according to the present invention on cancer.
A first tumor (DU145 cells) with Matrigel plug was implanted in the middle of the upper back of nude mice (BALB/c-slc-nu/nu mice).
Five weeks after the first implantation, a second tumor (DU145 cells) was implanted in the middle of the left and right sides of the back of the nude mice.
Intraperitoneal administration of a compound according to the present invention, H-77, at a dose of 2.5 mg/kg/day and a frequency of 5 times a week was started 6 weeks after the first implantation, at which the first tumor became measurable (at this timing, the second tumor was so small in size and not measurable), and was continued for 9 weeks. No compound was administered to a group of mice to prepare control mice.
The volume of the second tumor was so small and not measurable at the beginning of administration of the compound. Therefore, the result from the second tumor is expressed in volume (mm^3), but not in ratio.

T1 sequence (Q13526 whole entry): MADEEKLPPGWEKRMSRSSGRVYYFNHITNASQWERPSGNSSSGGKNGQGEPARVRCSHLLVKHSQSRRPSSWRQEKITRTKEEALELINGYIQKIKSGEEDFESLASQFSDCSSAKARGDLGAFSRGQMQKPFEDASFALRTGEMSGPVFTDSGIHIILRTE

Turning to `COC(=O)c1cc(OCc2ccccc2)ccc1NC(=O)c1ccc2ccccc2c1` [Compound H-68], at Pin1, the Pin1 inhibition activity entry is reported as “+”.

Regarding `O=C(Nc1ccc(OCc2ccccc2)cc1C(=O)O)c1ccc2ccccc2c1` [Compound H-77], the liver weight entry in series [1] (NASH mice given HFDT for 8 weeks, FIG. 1 (A)) is on record as “increase in liver weight was reduced”. In addition, the “blood AST (GOT) concentration” value in series [1] (NASH mice given HFDT for 8 weeks, FIG. 1 (B)) is on record as “AST value was decreased”. Moreover, the “fat accumulation in liver tissue (microscopic observation of sections)” value in series [1] (NASH mice given HFDT, FIG. 2) was “reduced fat accumulation”. Further, on Pin1, the Pin1 inhibition activity entry is on record as “+++”. Besides, the “hepatic fibrosis (liver tissue sections with Azan staining)” value in series [2] was “hepatic fibrosis was significantly inhibited”. For the same molecule, the “tumor volume ratio of the first tumor” value with DU145 cells (first DU145 tumor, FIG. 4 (A)) is listed as “tumor size growth was suppressed”. The “volume of the second tumor” value in the series on DU145 cells (second DU145 tumor, FIG. 4 (B)) is listed as “tumor size growth was suppressed”.

Turning to `COC(=O)c1cc(OCc2ccc3ccccc3c2)ccc1NC(C)=O` [Compound H-182], the Pin1 inhibition activity result at Pin1 is recorded as “++”.

Turning to `CC(=O)Nc1ccc(OCc2ccccc2)cc1C(=O)O` [Compound H-296, reference compound], the Pin1 inhibition activity entry at Pin1 is “−”.

`CC(=O)Nc1ccc(OCc2ccc3ccccc3c2)cc1C(=O)O` [Compound H-297]: the Pin1 inhibition activity result on Pin1 is recorded as “+++”.

On to `COC(=O)c1cc(OCc2ccc3ccccc3c2)ccc1N` [Compound H-300], for which, at Pin1, the Pin1 inhibition activity entry is on record as “+++”.

For `O=C(O)c1cc(OCc2ccccc2)ccc1NS(=O)(=O)c1ccc2ccccc2c1` [Compound H-338], the Pin1 inhibition activity result on Pin1 is listed as “+”.

For the molecule `O=C(Nc1ccc(OCc2ccccc2)cc1C(=O)O)c1ccc2ccccc2n1` [Compound H-339], at Pin1, the Pin1 inhibition activity entry is reported as “+”.

Turning to `O=C(COc1ccc2ccccc2c1)Nc1ccc(OCc2ccccc2)cc1C(=O)O` [Compound H-362], at Pin1, the Pin1 inhibition activity entry is recorded as “+”.

Take `O=C(Nc1ccc(OCc2ccccc2)cc1C(=O)O)c1cccc(Oc2ccccc2)c1` [Compound H-363]: the Pin1 inhibition activity entry on Pin1 is recorded as “+”.

As to `O=C(O)c1cc(OCc2ccccc2)ccc1NC(=O)c1cccc2ccccc12` [Compound H-370], on Pin1, the Pin1 inhibition activity result is “+”.

As for `O=C(Nc1ccc(OCc2ccc3ccccc3c2)cc1C(=O)O)c1ccc2ccccc2c1` [Compound H-371], the Pin1 inhibition activity result on Pin1 is “+”.

Turning to `O=C(O)c1cc(OCc2ccc3ccccc3c2)ccc1NS(=O)(=O)c1ccc2ccccc2c1` [Compound H-376], the Pin1 inhibition activity entry at Pin1 is “+”.

With `Nc1ccc(OCc2ccc3ccccc3c2)cc1C(=O)O` [Compound H-443], at Pin1, the Pin1 inhibition activity entry was “+”.

For the molecule `O=C1C=CC(=O)c2c(O)cccc21` [Juglone, reference compound], the “death of the mice during the study” value in series [1] (NASH mice given HFDT for 8 weeks) is “all dead within 8 weeks”.

The values are drawn from patent US12357626B2, “Anthranilic acid-based compound, and Pin1 inhibitor, therapeutic agent for inflammatory diseases and therapeutic agent for cancer that use the same” (Amenis Bioscience, Inc., priority 2017, dated 2025).
